From patent US11839601B2, “Cannabis-enriched enzymatically treated therapeutic composition” (priority 2016, dated 2023)

Assay: Storage of honey / cannabis extract blends at room temperature, cannabinoid content after storage (conversion)
Assay type: physicochemical
Description: Cannabis plants of various strains were extracted using ethanol at ethanol to plant material weight/weight ratio of 8 to 1 for 30 minutes. Ethanol was removed from the extracts by evaporation under reduced pressure and the desolventized extracts were treated at 120° C. to reach complete decarboxylation. The cannabinoids content in each of the formed extracts was analyzed using HPLC.
Pure honey samples were blended with water and with the cannabis extracts to form what looked to the eye as homogeneous blends. Comparative blends were prepared by blending honey samples with extracts, but with no water addition. Cannabinoids concentrations in the blends were calculated, using the extracts compositions and the dilution by honey and water.
The blends were stored at room temperature for different durations. Then samples were taken and analyzed for cannabinoids content.

[1] = blend of 30 gr honey + 10 gr water + extract, 11 days
[2] = blend of 30 gr honey + 10 gr water + extract, glucose 64 %, 11 days, initial (calculated) THC 752 ppm, CBD 749 ppm
[3] = comparative blend of 30 gr honey + extract, no water, glucose 85 %, 18 days, initial (calculated) CBD 1150 ppm, THC 1050 ppm

## C=C(C)[C@@H]1CCC(C)=C[C@H]1c1c(O)cc(CCCCC)cc1O [CBD, cannabidiol]
[1]
  Conversion: 27
[2]
  Concentrations after storage: 547
[3]
  Concentrations after storage: 1148

## CCCCCc1cc(O)c2c(c1)OC(C)(C)[C@@H]1CCC(C)=C[C@@H]21 [THC, tetrahydrocannabinol]
[1]
  Conversion: 45
[2]
  Concentrations after storage: 414
[3]
  Concentrations after storage: 1047
water-diluted honey blends, 11 days
  Conversion of THC compared with CBD: greater than that of CBD
